Five molecules from the NIST ThermoML archive (doi:10.1016/j.jct.2012.12.017) can be followed below.

The nature of data set [1]: refractive index (Na D-line) (dimensionless). The conditions noted are these: 298.15 K; 101.33 kPa; Liquid; Abbe refractometer.
The conditions of data set [2]: 298.15 K; 101.33 kPa; Liquid; Vibrating tube method.

Molecules are shown by their SMILES. ± gives the expanded uncertainty stated by the source.

As for `CCCCCCC` [heptane], in data set [1], the refractive index is 1.38529 ± 0.00033. In data set [2], the mass density was 679.57 ± 0.25 kg/m3.

As for `CCO` [ethanol], the refractive index in data set [1] is listed as 1.35936 ± 0.00033. In addition, the mass density in data set [2] is listed as 785.2 ± 0.24 kg/m3.

In the case of `CCCCCC` [hexane], the refractive index in data set [1] amounted to 1.37241 ± 0.00033. Further, the mass density in data set [2] was determined as 655.2 ± 0.25 kg/m3.

`CCC[n+]1cccc(C)c1.O=S(=O)([N-]S(=O)(=O)C(F)(F)F)C(F)(F)F`: the refractive index in data set [1] is 1.44485 ± 0.00033. Besides, in data set [2], the mass density came to 1447.94 ± 0.62 kg/m3.

With `CC[n+]1cccc(C)c1.O=S(=O)([N-]S(=O)(=O)C(F)(F)F)C(F)(F)F`, the refractive index in data set [1] came to 1.44376 ± 0.00033. Further, the mass density in data set [2] is on record as 1488.5 ± 0.66 kg/m3.
